Results published in PubChem BioAssay AID330 (DTP/NCI, 2004).
Several values for one entry are separate records, joined by “and”; a condition that tells them apart may be missing. Equal entries are not always repeated. Toxic doses and inconclusive results are not listed. The calls were made as follows: active = survival T/C of 150% or more; inactive = T/C below 125% in these data.

Tested on: P388 leukemia ip, CD2F1 mice, survival T/C
Experiment: NCI In Vivo Anticancer Drug Screen. Data for tumor model P388 Leukemia (intraperitoneal) in CD2F1 (CDF1) mice
Details: endpoint: median survival time, higher = longer survival
Method: The antitumor activity of compounds was measured in mice bearing transplantable tumors. Survival or tumor size were measured and the results are expressed as the measurement made in the treated group (T) divided by the measurement made in the vehicle treated control group (C). The tumor model used in this assay is P388 Leukemia (intraperitoneal) in CD2F1 (CDF1) mice

[1] = dose: 25.0 mg/kg/injection, schedule: Q01DX009 (ip), vehicle: saline with Tween-80
[2] = dose: 50.0 mg/kg/injection, schedule: Q01DX009 (ip), vehicle: saline with Tween-80
[3] = dose: 100.0 mg/kg/injection, schedule: Q01DX009 (ip), vehicle: saline with Tween-80
[4] = dose: 100.0 mg/kg/injection, schedule: Q04DX003 (ip), vehicle: saline with Tween-80
[5] = dose: 200.0 mg/kg/injection, schedule: Q01DX009 (ip), vehicle: saline with Tween-80
[6] = dose: 50.0 mg/kg/injection, schedule: Q01DX009 (ip), vehicle: saline
[7] = dose: 100.0 mg/kg/injection, schedule: Q01DX009 (ip), vehicle: saline
[8] = dose: 60.0 mg/kg/injection, schedule: Q01DX005 (ip), vehicle: saline with Tween-80
[9] = dose: 120.0 mg/kg/injection, schedule: Q01DX005 (ip), vehicle: saline with Tween-80
[10] = dose: 240.0 mg/kg/injection, schedule: Q01DX005 (ip), vehicle: saline with Tween-80
[11] = dose: 100.0 mg/kg/injection, schedule: Q04DX002 (ip), vehicle: saline with Tween-80
[12] = dose: 200.0 mg/kg/injection, schedule: Q04DX002 (ip), vehicle: saline with Tween-80

Measured: T/C

CC(=O)C1=C(O)/C(=C\SCc2ccccc2)NC1=O
inactive: dose: 8.75 mg/kg/injection, schedule: Q01DX005 (ip), vehicle: Klucel (hydroxypropylcellulose) (HPC) 105 % of control | dose: 17.5 mg/kg/injection, schedule: Q01DX005 (ip), vehicle: Klucel (hydroxypropylcellulose) (HPC) 104 % of control | dose: 35.0 mg/kg/injection, schedule: Q01DX005 (ip), vehicle: Klucel (hydroxypropylcellulose) (HPC) 101 % of control

COC(=O)C1C(C(=O)OC)C2N(c3ccccc3)C=NN2C1C(=O)c1ccccc1 (stereo not drawn)
inactive: dose: 50.0 mg/kg/injection, schedule: Q01DX005 (ip), vehicle: saline with Tween-80 96 % of control | dose: 100.0 mg/kg/injection, schedule: Q01DX005 (ip), vehicle: saline with Tween-80 103 % of control | dose: 200.0 mg/kg/injection, schedule: Q01DX005 (ip), vehicle: saline with Tween-80 93 % of control

CCOC(=O)Nc1cc2c(c(N)n1)N=C(c1ccc(C(F)(F)F)cc1)CN2
inactive: dose: 2.5 mg/kg/injection, schedule: Q01DX009 (ip), vehicle: saline with Tween-80 109 % of control | dose: 5.0 mg/kg/injection, schedule: Q01DX009 (ip), vehicle: saline with Tween-80 111 % of control | dose: 7.5 mg/kg/injection, schedule: Q04DX003 (ip), vehicle: saline with Tween-80 101 % of control | dose: 10.0 mg/kg/injection, schedule: Q01DX009 (ip), vehicle: saline with Tween-80 111 % of control | dose: 12.5 mg/kg/injection, schedule: Q01DX009 (ip), vehicle: saline with Tween-80 86 % of control | dose: 15.0 mg/kg/injection, schedule: Q04DX003 (ip), vehicle: saline with Tween-80 104 % of control | dose: 22.5 mg/kg/injection, schedule: Q01DX001 (ip), vehicle: saline with Tween-80 101 % of control | [1] 111 % of control | dose: 30.0 mg/kg/injection, schedule: Q04DX003 (ip), vehicle: saline with Tween-80 101 % of control | dose: 45.0 mg/kg/injection, schedule: Q01DX001 (ip), vehicle: saline with Tween-80 94 % of control | [2] 117 % of control | dose: 90.0 mg/kg/injection, schedule: Q01DX001 (ip), vehicle: saline with Tween-80 101 % of control

CCOC1=NN(c2ccccc2)C(=O)C1
inactive: [3] 100 % of control | [4] 95 % of control | [5] 100 % of control | dose: 200.0 mg/kg/injection, schedule: Q04DX003 (ip), vehicle: saline with Tween-80 95 % of control | dose: 400.0 mg/kg/injection, schedule: Q01DX009 (ip), vehicle: saline with Tween-80 100 % of control | dose: 400.0 mg/kg/injection, schedule: Q04DX003 (ip), vehicle: saline with Tween-80 95 % of control

COC(CNc1nc2c(s1)c1c(O)c3c(O)c(C)c4c(c32)C(=O)C(C)(O/C=C\C(OC)C(C)C(OC(C)=O)C(C)C(O)C(C)C(O)C(C)/C=C/C=C(/C)C(=O)N1)O4)OC (stereo not drawn)
inactive: dose: 25.0 mg/kg/injection, schedule: Q01DX009 (ip), vehicle: Klucel (hydroxypropylcellulose) (HPC) 93 % of control | dose: 50.0 mg/kg/injection, schedule: Q01DX009 (ip), vehicle: Klucel (hydroxypropylcellulose) (HPC) 95 % of control | dose: 100.0 mg/kg/injection, schedule: Q01DX009 (ip), vehicle: Klucel (hydroxypropylcellulose) (HPC) 93 % of control | dose: 200.0 mg/kg/injection, schedule: Q01DX009 (ip), vehicle: Klucel (hydroxypropylcellulose) (HPC) 94 % of control

CCN(CC)CCCNc1ccc([N+](=O)[O-])c2no[n+]([O-])c12
inactive: [6] 99 % of control | [7] 100 % of control

CCCOC(=O)C(F)C(Br)C(=O)OCCC (stereo not drawn)
inactive: [1] 100 % of control and 107 % of control | [2] 105 % of control and 120 % of control | [3] 111 % of control and 118 % of control | [5] 123 % of control

COC(=O)c1cn(C2OC(CO)C(O)C2O)c2ncnc(N)c12 (stereo not drawn)
inactive: dose: 3.75 mg/kg/injection, schedule: Q01DX005 (ip), vehicle: saline with Tween-80 103 % of control | dose: 7.5 mg/kg/injection, schedule: Q01DX005 (ip), vehicle: saline with Tween-80 104 % of control | dose: 15.0 mg/kg/injection, schedule: Q01DX005 (ip), vehicle: saline with Tween-80 117 % of control and 98 % of control | [8] 100 % of control

Cc1cc(N)c(C)c(C)c1O
inactive: [1] 113 % of control | dose: 25.0 mg/kg/injection, schedule: Q04DX003 (ip), vehicle: saline with Tween-80 100 % of control | [2] 118 % of control | dose: 50.0 mg/kg/injection, schedule: Q04DX003 (ip), vehicle: saline with Tween-80 110 % of control | [4] 110 % of control

COc1nc(/C=C/c2ccccc2)c([N+](=O)[O-])c(OC)n1
inactive: dose: 100.0 mg/kg/injection, schedule: Q04DX003 (ip), vehicle: saline 103 % of control | dose: 200.0 mg/kg/injection, schedule: Q04DX003 (ip), vehicle: saline 103 % of control | dose: 400.0 mg/kg/injection, schedule: Q04DX003 (ip), vehicle: saline 100 % of control

OC12CC3C4CC(O1)C1C4CC3C12 (stereo not drawn)
inactive: dose: 60.0 mg/kg/injection, schedule: Q01DX005 (ip), vehicle: saline 102 % of control | dose: 120.0 mg/kg/injection, schedule: Q01DX005 (ip), vehicle: saline 109 % of control | dose: 240.0 mg/kg/injection, schedule: Q01DX005 (ip), vehicle: saline 109 % of control

Cc1cc(C2(c3cc(C)c(O)c(Br)c3)OS(=O)(=O)c3ccccc32)cc(Br)c1O
inactive: [8] 99 % of control | [9] 102 % of control | [10] 90 % of control

C/C(=N\NC(N)=S)c1ccc2c(c1)Cc1cc(/C(C)=N/NC(N)=S)ccc1-2
inactive: dose: 25.0 mg/kg/injection, schedule: Q04DX002 (ip), vehicle: saline with Tween-80 99 % of control | dose: 50.0 mg/kg/injection, schedule: Q04DX002 (ip), vehicle: saline with Tween-80 92 % of control | [11] 93 % of control | [12] 95 % of control

CCNC(=O)c1ccccc1S(C)=O (stereo not drawn)
inactive: [8] 99 % of control | [9] 111 % of control | [10] 104 % of control

[O-]c1nc(C(F)(F)F)nc(C(F)(F)F)c1-[n+]1ccccc1
inactive: dose: 60.0 mg/kg/injection, schedule: Q01DX005 (ip), vehicle: Klucel (hydroxypropylcellulose) (HPC) 108 % of control | dose: 120.0 mg/kg/injection, schedule: Q01DX005 (ip), vehicle: Klucel (hydroxypropylcellulose) (HPC) 104 % of control | dose: 240.0 mg/kg/injection, schedule: Q01DX005 (ip), vehicle: Klucel (hydroxypropylcellulose) (HPC) 96 % of control

C=CCSc1nc2ccc(NCn3c(=S)sc4ccccc43)cc2s1
inactive: dose: 100.0 mg/kg/injection, schedule: Q04DX003 (ip), vehicle: Klucel (hydroxypropylcellulose) (HPC) 89 % of control | dose: 200.0 mg/kg/injection, schedule: Q04DX003 (ip), vehicle: Klucel (hydroxypropylcellulose) (HPC) 89 % of control | dose: 400.0 mg/kg/injection, schedule: Q04DX003 (ip), vehicle: Klucel (hydroxypropylcellulose) (HPC) 89 % of control

COc1cc(C2=NCCc3cc4c(cc32)OCO4)cc(OC)c1OC
inactive: dose: 50.0 mg/kg/injection, schedule: Q01DX005 (ip), vehicle: saline 100 % of control and 101 % of control | dose: 100.0 mg/kg/injection, schedule: Q01DX005 (ip), vehicle: saline 105 % of control and 118 % of control
active: dose: 200.0 mg/kg/injection, schedule: Q01DX005 (ip), vehicle: saline 152 % of control

O=C1O/C(=C/c2cc(Cl)c(O)c(Cl)c2)c2ccccc21
inactive: dose: 100.0 mg/kg/injection, schedule: Q04DX002 (ip), vehicle: saline 96 % of control | dose: 200.0 mg/kg/injection, schedule: Q04DX002 (ip), vehicle: saline 99 % of control | dose: 400.0 mg/kg/injection, schedule: Q04DX002 (ip), vehicle: saline 99 % of control

C/C=C/C=C(/C=O)[C@@H](O)C(C)=O
inactive: dose: 2.0 mg/kg/injection, schedule: Q01DX009 (ip), vehicle: saline + alcohol 121 % of control and 93 % of control | dose: 4.0 mg/kg/injection, schedule: Q01DX009 (ip), vehicle: saline + alcohol 101 % of control | dose: 8.0 mg/kg/injection, schedule: Q01DX009 (ip), vehicle: saline + alcohol 101 % of control | dose: 16.0 mg/kg/injection, schedule: Q01DX009 (ip), vehicle: saline + alcohol 111 % of control

COC(=O)c1noc2c1CSc1ccccc1-2
inactive: [11] 104 % of control | [12] 99 % of control

COc1ccc(C(O)C/[N+]([O-])=C/c2ncc([N+](=O)[O-])n2C)cc1 (stereo not drawn)
inactive: [6] 97 % of control | [7] 100 % of control | dose: 200.0 mg/kg/injection, schedule: Q01DX009 (ip), vehicle: saline 106 % of control

COc1cc(=O)[nH]c(-c2ccccc2)c1OC
inactive: [8] 99 % of control | [9] 99 % of control | [10] 99 % of control
